Assays:
[1] = system: Woodchuck Hepatitis Virus (WHV); experiment: Seroconversion and antiviral activity in woodchucks chronically infected with WHV; format: in vivo, Eastern Woodchucks (Marmota monax); details: chronic WHV carrier woodchucks, oral 0.5 mg/kg/day for 28 days
Experimental: Compound A or placebo was administered orally to five woodchucks per group that were chronic carriers of woodchuck hepatitis virus (WHV). Compound A was administered at a dose of 0.5 mg/kg/day for 28 days. Blood samples were collected prior to dosing and multiple times during and after the 28 day dosing period. Antiviral activity of Compound A was assessed by comparing the serum WHV DNA of treated WHV carrier woodchucks with control WHV carrier woodchucks receiving vehicle. The ability of Compound A to cause seroconversion in chronically infected animals was assessed by comparing the serum antibody levels against the woodchuck hepatitis virus surface antigen (anti-WHsAg) in infected animals to the anti-WHsAg antibody levels in placebo treated animals.
The woodchucks used in this study were born to WHV-negative females and reared in environmentally controlled laboratory animal facilities. Woodchucks were inoculated at 3 days of age with 5 million woodchuck infectious doses of a standardized WHV inoculum (cWHV7P1 or WHV7P2). Woodchucks selected for use developed WHV surface antigen (WHsAg) serum antigenemia and became chronic WHV carriers. The chronic carrier status of these woodchucks was confirmed prior to initiation of drug treatment.
Serum WHV DNA concentrations were measured before treatment, during treatment, and during the post-treatment follow-up period at frequent intervals. WHV viremia in serum samples was assessed by dot blot hybridization using three replicate volumes (10 μl) of undiluted serum (sensitivity, 1.0×10^7 WHV genome equivalents per ml [WHVge/ml]) compared with a standard dilution series of WHV recombinant DNA plasmid (pWHV8).
Levels of Woodchuck Hepatitis Virus surface antigen (WHsAg) and antibodies to WHsAg (anti-WHs) were determined before treatment, during treatment, and during the post-treatment follow-up period at frequent intervals, using WHV-specific enzyme immunoassays.
Antiviral activity of Compound A was assessed by comparing the serum WHV DNA and the hepatic WHV nucleic acids of treated WHV carrier woodchucks with control WHV carrier woodchucks receiving vehicle.
Immune stimulatory activity of Compound A to cause seroconversion was assessed by comparing the serum levels of WHsAg and antibodies to WHsAg (anti-WHsAg).

[2] = system: serum cytokines; experiment: Induction of serum cytokines in mice (ELISA, Luminex/Milliplex); format: in vivo, CD-1 mice; details: Day 1, 2 hours Post-dose
Experimental: Compound A was dosed once per day for 14 days by oral gavage, at 0.5 mg/kg or 2.5 mg/kg, in CD-1 mice. Mouse serum samples were collected on day 1 and day 14, and serum cytokine levels were determined using the following method. The assay for interferon-a was done by ELISA (VeriKine™ Mouse Interferon Alpha (Mu-IFN-a) ELISA Kit, Product Number: 42100-1, PBL Biomedical Laboratories, New Brunswick, N.J.) and the other serum cytokines were assayed with Luminex and Milliplex bead kits. Cytokine levels were determined using a nonlinear five point parameter curve for interpolation of data using the fit=(A+((B−A)/(1+(((B−E)/(E−A))*((x/C)̂D))))). The results are shown in Table 4 where the cytokine concentrations are expressed in units of pg/mL.

[3] = system: interferon-alpha; experiment: Induction of interferon alpha in cynomolgus monkeys, multiple oral doses once per day (serum ELISA); format: in vivo
Experimental: Additionally, multiple doses of Compound A were administered to Cynomolgus monkeys, and the concentrations of interferon alpha were measured. Compound A was dosed orally once per day to Cynomolgus monkeys (3 animals per dose group), and serum was collected on Days 1, 7 and 15 at 4 and 8 hours after dosing. Serum samples were analyzed for levels of interferon-alpha by ELISA. Prior to dosing on Day 1, serum interferon-alpha levels were below the level of detection in each animal.

[4] = system: interferon-alpha; experiment: Induction of interferon alpha in cynomolgus monkeys, single oral dose (serum ELISA); format: in vivo; details: serum at 4 and 8 hours
Experimental: A single dose of Compound A was administered orally to cynomolgus monkeys (3 or more animals per dose group) and serum was collected at 4 hours and 8 hours after dosing. Serum samples were analyzed for levels of interferon-alpha by ELISA. Prior to dosing, serum interferon-alpha levels were near or below the level of detection in each animal. The limit of quantitation (LOQ) for IFN-a based on cynomolgus monkey IFN-a standard was 625 pg/mL.

## CCCCOc1nc(N)c2nc(O)n(Cc3cccc(CN4CCCC4)c3)c2n1 [Compound A, 6-amino-2-butoxy-9-(3-(pyrrolidin-1-ylmethyl)benzyl)-9H-purin-8-ol]
[1]; FIG. 1
  serum WHV DNA concentrations: caused a substantial reduction in serum WHV DNA concentrations
[1]; FIG. 2
  antibodies against Woodchuck Hepatitis Virus Surface Antigen (anti-WHs): stimulated production of antibodies against Woodchuck Hepatitis Virus Surface Antigen (WHsAg)
[1]; FIG. 3
  serum levels of WHsAg: caused a substantial reduction in serum levels of WHsAg
[1]; FIGS. 1-3
  seroconversion against WHV: induced seroconversion against WHV
[2]; oral 0.5 mg/kg
  Average Serum IFN-a Level ± Standard Deviation: 296.3 ± 322.4 pg/mL
  Average Serum IL1-β Level ± Standard Deviation: 4.8 ± 2.7 pg/mL
  Average Serum IL6 Level ± Standard Deviation: 257.2 ± 420.9 pg/mL
  Average Serum IL12p40 Level ± Standard Deviation: 3.2 ± 0 pg/mL
  Average Serum IL-10 Level ± Standard Deviation: 3.2 ± 0 pg/mL
  Average Serum TNF-a Level ± Standard Deviation: 41.7 ± 42.4 pg/mL
[2]; oral 2.5 mg/kg
  Average Serum IFN-a Level ± Standard Deviation: 1091.8 ± 413.6 pg/mL
  Average Serum IL1-β Level ± Standard Deviation: 20.8 ± 16.1 pg/mL
  Average Serum IL6 Level ± Standard Deviation: 6710.2 ± 3657.4 pg/mL
  Average Serum IL12p40 Level ± Standard Deviation: 10 ± 11.7 pg/mL
  Average Serum IL-10 Level ± Standard Deviation: 143.4 ± 102.7 pg/mL
  Average Serum TNF-a Level ± Standard Deviation: 407.1 ± 258.1 pg/mL
[3]; oral 0.005 mg/kg once per day, Day 1
  Average peak serum Interferon-alpha levels on designated day: 3233 pg/mL
[3]; oral 0.005 mg/kg once per day, Day 7
  Average peak serum Interferon-alpha levels on designated day: 6709 pg/mL
[3]; oral 0.005 mg/kg once per day, Day 15
  Average peak serum Interferon-alpha levels on designated day: 24053 pg/mL
[3]; oral 0.05 mg/kg once per day, Day 1
  Average peak serum Interferon-alpha levels on designated day: 87570 pg/mL
[3]; oral 0.05 mg/kg once per day, Day 7
  Average peak serum Interferon-alpha levels on designated day: 12175 pg/mL
[3]; oral 0.05 mg/kg once per day, Day 15
  Average peak serum Interferon-alpha levels on designated day: 42648 pg/mL
[3]; oral once per day, 0.005 and 0.05 mg/kg, Days 1, 7, 15
  induction of serum interferon-alpha: Interferon-alpha was induced
[4]; single oral dose 0.005 mg/kg
  Average peak serum Interferon-alpha levels (Mean ± standard deviation): 7829 ± 9192 pg/mL
[4]; single oral dose 0.02 mg/kg
  Average peak serum Interferon-alpha levels (Mean ± standard deviation): 26148 ± 13873 pg/mL
[4]; single oral dose 0.05 mg/kg
  Average peak serum Interferon-alpha levels (Mean ± standard deviation): 42741 ± 29223 pg/mL
[4]; single oral dose 2.5 mg/kg
  Average peak serum Interferon-alpha levels (Mean ± standard deviation): 772923 ± 281529 pg/mL

From patent US20110150836A1, “METHODS OF TREATING HBV AND HCV INFECTION” (Gilead Sciences, Inc., priority 2009, published 2011)
